Laboratory results taken from ChEMBL document CHEMBL5518246, “Discovery of Small Molecule Interleukin 17A Inhibitors with Novel Binding Mode and Stoichiometry: Optimization of DNA-Encoded Chemical Library Hits to In Vivo Active Compounds” (J Med Chem, 2024).
≈ marks a conversion by molar mass, not a printed value.

How the values were obtained:
[1] = Metabolic stability in human liver microsomes assessed as unbound intrinsic clearance at 0.5 uM measured after 4 hrs; format: ADME, Microsome
[2] = Thermodynamic solubility of the compound at pH 7.4 measured after 48 hrs by UHPLC analysis; format: physicochemical; conditions: buffer, read-out: Therm_solubility
[3] = Plasma clearance in iv dosed CD-1 mouse measured after 24 hrs; format: ADME, organism-based
[4] = Oral bioavailability in mouse at 10 mg/kg; format: ADME, organism-based; conditions: in vivo
[5] = Unbound plasma clearance in iv dosed CD-1 mouse measured after 24 hrs; format: ADME, organism-based; conditions: in vivo
[6] = Oral bioavailability in mouse at 1 mg/kg; format: ADME, organism-based; conditions: in vivo
[7] = Metabolic stability in rat liver microsomes assessed as unbound intrinsic clearance; format: ADME, Microsome
[8] = Volume of distribution at steady-state in Sprague-Dawley rat at 1 mg/kg, iv measured after 24 hrs; format: ADME, organism-based; conditions: in vivo, read-out: Vdss
[9] = Half life in Sprague-Dawley rat at 1 mg/kg, iv measured after 24 hrs; format: ADME, organism-based; conditions: in vivo
[10] = Plasma clearance in Sprague-Dawley rat at 1 mg/kg, iv measured after 24 hrs; format: ADME, organism-based
[11] = Unbound plasma clearance in Sprague-Dawley rat at 1 mg/kg, iv measured after 24 hrs; format: ADME, organism-based; conditions: in vivo
[12] = Thermodynamic solubility of the compound in FaSSIF at pH 6.5 after 48 hrs by UHPLC analysis; format: ADME; conditions: read-out: Therm_solubility
[13] = Drug uptake in IL17A-induced CXCL1 secretion in C57BL/6 mouse at 10 mg/kg, iv pretreated 1 hr before IL17A challenge measured after 2 hrs; format: ADME, organism-based; conditions: in vivo, read-out: Drug uptake

CL free [1] [mL/min/kg]	solubility thermodynamic at 48 h [2] [µM]	clearance [3] [mL/min/kg]	bioavailability [4] [%]	CL free [5] [mL/min/kg]	bioavailability [6] [%]	CL free [7] [mL/min/kg]	Vd [8] [L/kg]	half-life [9] [h]	clearance [10] [mL/min/kg]	CL free [11] [mL/min/kg]	solubility thermodynamic at 48 h [12] [µg/mL]	concentration at 1 h [13] [ng/mL]	SMILES
1100	27 (≈ 12.8 µg/mL)	–	–	–	–	–	–	–	–	–	–	–	O=C(N[C@@H](CCc1ccccc1)C(=O)NCc1ncc2c(n1)CCC2)c1cc(Cl)c(Cl)[nH]1
132	17 (≈ 8.78 µg/mL)	–	–	–	–	1080	1.4	0.47	46.7	1430	16 (≈ 31 µM)	190	C[C@H](NC(=O)[C@]1(NC(=O)c2cc(Cl)c(Cl)[nH]2)CO[C@H](c2ccccc2)C1)c1ncc2c(n1)COC2
< 35	120 (≈ 69.4 µg/mL)	–	–	–	–	< 60	5.9	3.3	21.7	48.3	630 (≈ 1090 µM)	68	C[C@H](NC(=O)[C@]1(NC(=O)c2cc(Cl)c[nH]2)CO[C@H](c2ccccc2)C1)c1ncc2c(n1)CN(C1CCN(C)CC1)C2
183	8 (≈ 3.79 µg/mL)	–	–	–	–	–	–	–	–	–	–	–	O=C(N[C@@H](CCc1ccccc1)C(=O)NCc1ncc2c(n1)COC2)c1cc(Cl)c(Cl)[nH]1
< 36.7	510 (≈ 322 µg/mL)	–	–	–	–	–	6.4	3.5	21.7	137	–	139	C[C@H](NC(=O)[C@]1(NC(=O)c2cc(Cl)c(Cl)[nH]2)CO[C@H](c2ccc(F)cc2)C1)c1ncc2c(n1)CN(C1CCN(C)CC1)C2

Continued, compound first:

SMILES	CL free [1] [mL/min/kg]	solubility thermodynamic at 48 h [2] [µM]	clearance [3] [mL/min/kg]	bioavailability [4] [%]	CL free [5] [mL/min/kg]	bioavailability [6] [%]	CL free [7] [mL/min/kg]	Vd [8] [L/kg]	half-life [9] [h]	clearance [10] [mL/min/kg]	CL free [11] [mL/min/kg]	solubility thermodynamic at 48 h [12] [µg/mL]	concentration at 1 h [13] [ng/mL]
C[C@H](NC(=O)[C@]1(NC(=O)c2cc(Cl)c(Cl)[nH]2)CO[C@H](c2ccccc2)C1)c1cn2c(=O)n(C)cc(F)c2n1	61.7	0.82 (≈ 0.46 µg/mL)	33.3	22	1830	–	–	–	–	–	–	–	–
C[C@H](NC(=O)[C@H](CCc1ccccc1)NC(=O)c1cc(Cl)c(Cl)[nH]1)c1cn2c(=O)n(C)cc(F)c2n1	163	4.5 (≈ 2.4 µg/mL)	45	–	4830	1.6	–	–	–	–	–	–	–
C[C@H](NC(=O)[C@]1(NC(=O)c2cc(Cl)c(Cl)[nH]2)CO[C@H](c2ccccc2)C1)c1ncc2c(n1)CN(C1CCN(C)CC1)C2	< 45	> 1000	–	–	–	–	< 76.7	5	3.6	18.3	102	460 (≈ 751 µM)	108
O=C(N[C@@H](CCc1ccccc1)C(=O)NCc1ncc(C2CCOCC2)cn1)c1cc(Cl)c(Cl)[nH]1	333	2.5 (≈ 1.29 µg/mL)	–	–	–	–	–	–	–	–	–	–	–
COCc1ccc([C@@H]2C[C@](NC(=O)c3cc(Cl)c(Cl)[nH]3)(C(=O)N[C@@H](C)c3ncc4c(n3)CN(C3CCN(C)CC3)C4)CO2)cc1	< 31.7	60 (≈ 39.4 µg/mL)	–	–	–	–	< 53.3	3.2	1.5	33.3	250	–	85
CN1Cc2cnc(CNC(=O)[C@H](CCc3ccccc3)NC(=O)c3cc(Cl)c(Cl)[nH]3)nc2C1	140	1.8 (≈ 0.877 µg/mL)	–	–	–	–	–	–	–	–	–	–	–
